# Measured values from US12325695B2, “5-(4-pyridyloxy)pyrazole compounds serving as TGF-βR1 kinase inhibitor” (JIANGSU AOSAIKANG PHARMACEUTICAL CO., LTD., priority 2019, dated 2025).
# Tests used:
# [1] = test system: pSmad; assay: Inhibitory activity assay on Smad phosphorylation (HEK-Blue-TGFβ cells, Quanti-Blue readout); format: cell-based; conditions: TGFβ stimulation, 24 hours, read-out: pSmad inhibition IC50
# Protocol: Experimental Embodiment 1: Inhibitory Activity Assay on Smad Phosphorylation
# Both HEK-Blue-TGFβ cells and Quanti-Blue reagent were purchased from Invivogen Company. TGFβ was purchased from PeproTech.
# The compounds to be tested were diluted 5 times with a row gun to the 8th concentration, that is, diluted from 1 mmol/L to 12.8 nmol/L, the final concentration of dimethyl sulfoxide was 100%, and a double hole experiment was set up. 2 μL of inhibitors of each concentration gradient, 18 μL of TGFβ (20 ng/mL), and 180 μL of cell suspension (140,000 cells/mL) were added to the microplate. At this time, the final concentration gradient of the compound was […] diluted to 0.13 nmol/L. The cell plate was placed at 37° C. in a 5% CO2 incubator for 24 hours. After the reaction was completed, 40 μL of cell culture supernatant was taken out from each well to a new transparent microtiter plate, 160 μL of Quanti-Blue reagent was added to each well, and then the reaction was carried out at 37° C. for 60 minutes. After the reaction was completed, the PerkinElmer Envision multi-label analyzer was used to read the absorption light at 630 nm.
# The original data was converted into the inhibition rate, and the IC50 value can be obtained by curve fitting with four parameters.
# [2] = Pharmacokinetics study of cassette drug administration in vivo; parameters: species or system CD-1 male mice; conditions: male, mouse, plasma, CD-1 mice; for Vd: read-out: Vdss; for bioavailability: oral (1.5 mg/kg) vs injection (1 mg/kg), read-out: F (bioavailability)
# Protocol: Experimental Embodiment 2: Pharmacokinetics Study of Cassette Drug Administration in Vivo
# The purpose of this experiment is to evaluate the pharmacokinetic behavior of the compound after a single intravenous injection and intragastric administration, and to investigate the bioavailability after intragastric administration.
# CD-1 male mice aged from 7 to 10 weeks were selected, and the doses for intravenous and oral administration were 1 mg/kg and 1.5 mg/kg, respectively. The mice were fasted for at least 12 hours before the administration, and resumed feeding 4 hours after the administration. The mice were free to drink during the entire experiment.
# (§1) On the day of the experiment, animals in the intravenous group were given a single injection of the corresponding compound through the tail vein with a volume of 5 mL/kg; the oral group was given the corresponding compound by a single gavage with a volume of 5 mL/kg. The animals were weighed before administration, and the administration volume was calculated according to the body weight. Sample collection time: 0.083 hours, 0.25 hours, 0.5 hours, 1 hour, 2 hours, 4 hours, 8 hours, 24 hours in the injection group; 0.25 hours, 0.5 hours, 1 hour, 2 hours, 4 hours, 6 hours, 8 hours, 24 hours in the gavage group. Approximately 30 μL of whole blood was collected through the saphenous vein at each time point to prepare plasma for high-performance liquid chromatography-tandem mass spectrometry (LC-MS/MS) for concentration determination. All animals were euthanized by CO2 anesthesia after collecting PK samples at the last time point. The non-compartmental model of WinNonlin™ Version 6.3 (Pharsight, Mountain View, CA) pharmacokinetic software was used to process the plasma concentration, and the pharmacokinetic parameters were calculated using the linear and logarithmic trapezoidal method.
# [3] = test system: mouse colon cancer CT-26 cells; assay: Anti-tumor drug efficacy study, mouse colon cancer CT-26 cell BALB/c mouse subcutaneous allograft tumor model; format: in vivo, BALB/c mice; conditions: 50 mg/kg, twice a day, oral
# Protocol: (§2) Experimental Embodiment 3: Anti-Tumor Drug Efficacy Study of Mouse Colon Cancer CT-26 Cell BALB/c Mouse Subcutaneous Allograft Tumor Model In Vivo
# The main purpose of this study is to study the anti-tumor drug efficacy of the tested compounds on the CT26 mouse allograft tumor model.
# (§3) Cell culture: mouse colon cancer CT-26 cells were cultured in monolayer in vitro, and the culture conditions were RPMI-1640 medium with 10% fetal bovine serum, 37° C. and 5% carbon dioxide incubator. Trypsin-ethylenediaminetetraacetic acid (EDTA) was used for routine digestion and passage twice a week. When the cell saturation was 80%-90% and the number reached the requirement, the cells were collected, counted, and inoculated.
# (§4) Animals: BALB/c mice, female, 6-8 weeks old.
# (§5) Tumor inoculation: 0.1 mL of DPBS cell suspension containing 3×10^5 CT26 cells was subcutaneously inoculated into the right groin of each mouse, and administration was started on the day of inoculation.
# Experimental index: The experimental index was to investigate whether the tumor growth was inhibited, delayed or cured. The tumor diameter was measured with a vernier caliper twice a week. The calculation formula for tumor volume is: V=0.5 L×W^2, where L and W refer to the long diameter and short diameter of the tumor, respectively.
# [4] = Drug concentration in tumor tissue and plasma AUC in the CT26 tumor model study; format: in vivo, BALB/c mice; conditions: 50 mg/kg, twice a day, oral; for AUC: female, BALB/c, mouse, plasma
# Protocol: as §2, §3, §4, §5
# [5] = Pharmacokinetic studies in vivo (single compound); parameters: species or system CD-1 male mice; conditions: CD-1 mice; for AUC(0-t) / clearance / half-life / Vd / Cmax / Tmax: male, mouse, plasma; for Vd: read-out: Vdss
# Protocol: Experiment 4: Pharmacokinetic Studies In Vivo
# The purpose of this experiment is to evaluate the pharmacokinetic behavior of the compounds after a single intravenous injection and intragastric administration, and to investigate the bioavailability after intragastric administration.
# […] The mice were fasted for at least 12 hours before the administration, and resumed feeding 4 hours after the administration. The mice were free to drink during the entire experiment.
# as §1, with “volume of 10 mL/kg. The” for “volume of 5 mL/kg. The”, “the injection group, 0.25 hours,” for “the injection group; 0.25 hours,”
structure (smiles),measurement,setting,value
Cc1cccc(-n2nc(C)cc2Oc2ccnc(Nc3cccc(C(N)=O)c3)c2)c1 [Compound 1],IC50,[1],65.5 nM
Cc1cccc(-n2nccc2Oc2ccnc(Nc3cccc(C(N)=O)c3)c2)n1 [Compound 2],IC50,[1],247 nM
Cc1cccc(-n2nc3c(c2Oc2ccnc(Nc4cccc(C(N)=O)c4)c2)CCCC3)n1 [Compound 3],IC50,[1],54.3 nM
CCc1cc(Oc2ccnc(Nc3cccc(C(N)=O)c3)c2)n(-c2cccc(C)n2)n1 [Compound 4],IC50,[1],53.8 nM
Cc1cccc(-n2nc(C)cc2Oc2ccnc(Nc3cnn(CC(C)(C)O)c3)c2)n1 [Compound 5],IC50,[1],441 nM
Cc1cccc(-n2nc(C)cc2Oc2ccnc(Nc3cccc(C(N)=O)c3)c2)n1 [Compound 6],AUC(0-t),"[2]; iv, injection (1 mg/kg)",1.81 µM·h
same,clearance,"[2]; iv, injection (1 mg/kg)",24.9 mL/min/kg
same,half-life,"[2]; iv, injection (1 mg/kg)",1.32 h
same,Vd,"[2]; iv, injection (1 mg/kg)",1.05 L/kg
same,bioavailability,[2],54.6%
same,AUC(0-t),[2]; oral (1.5 mg/kg),1.45 µM·h
same,Cmax,[2]; oral (1.5 mg/kg),804 nM
same,Tmax,[2]; oral (1.5 mg/kg),0.25 h
same,half-life,[2]; oral (1.5 mg/kg),2.84 h
same,IC50,[1],79.2 nM
same,% Inhibitory rate on Day 29,[3],73%
same,Mean tumor volume Day 29,[3],601.7 mm^3
Cc1cccc(-n2nc(C)cc2Oc2ccnc(Nc3cnn(CC(C)C)c3)c2)n1 [Compound 7],IC50,[1],354 nM
Cc1cccc(-n2nc(C)cc2Oc2ccnc(Nc3cnccn3)c2)n1 [Compound 8],IC50,[1],684 nM
Cc1cccc(-n2nc(C)cc2Oc2ccnc(Nc3ccnc(C(C)(C)O)c3)c2)n1 [Compound 9],IC50,[1],268 nM
Cc1cccc(-n2nc(C)cc2Oc2ccnc(Nc3cnn(CCO)c3)c2)n1 [Compound 10],IC50,[1],355 nM
Cc1cccc(-n2nc(C)cc2Oc2ccnc(Nc3ccn(CC(C)(C)O)n3)c2)n1 [Compound 11],IC50,[1],191 nM
COc1cccc(-n2nc(C)cc2Oc2ccnc(Nc3cccc(C(N)=O)c3)c2)n1 [Compound 12],IC50,[1],432 nM
Cc1cccc(-n2nc3c(c2Oc2ccnc(Nc4cccc(C(N)=O)c4)c2)CCC3)n1 [Compound 13],IC50,[1],59.6 nM
Cc1cc(Oc2ccnc(Nc3cccc(C(N)=O)c3)c2)n(C2CCOCC2)n1 [Compound 14],Drug concentration in tumor tissue 1 hour after administration,[4],11318 nmol/kg
same,Drug concentration in tumor tissue 12 hours after administration,[4],820 nmol/kg
same,AUC,[4],30.1 µM·h
same,AUC(0-t),"[5]; iv, injection, 1 mg/kg",1.34 µM·h
same,clearance,"[5]; iv, injection, 1 mg/kg",31.5 mL/min/kg
same,half-life,"[5]; iv, injection, 1 mg/kg",1.17 h
same,Vd,"[5]; iv, injection, 1 mg/kg",1.64 L/kg
same,AUC(0-t),"[5]; oral, 2.5 mg/kg",2.7 µM·h
same,Cmax,"[5]; oral, 2.5 mg/kg",1560 nM
same,Tmax,"[5]; oral, 2.5 mg/kg",0.5 h
same,half-life,"[5]; oral, 2.5 mg/kg",1.15 h
same,F,[5]; oral 2.5 mg/kg vs injection 1 mg/kg,80.9%
same,AUC(0-t),"[2]; iv, injection (1 mg/kg)",1.06 µM·h
same,clearance,"[2]; iv, injection (1 mg/kg)",37 mL/min/kg
same,half-life,"[2]; iv, injection (1 mg/kg)",1.37 h
same,Vd,"[2]; iv, injection (1 mg/kg)",2.39 L/kg
same,bioavailability,[2],75.9%
same,AUC(0-t),[2]; oral (1.5 mg/kg),1.16 µM·h
same,Cmax,[2]; oral (1.5 mg/kg),567 nM
same,Tmax,[2]; oral (1.5 mg/kg),0.25 h
same,half-life,[2]; oral (1.5 mg/kg),1.61 h
same,IC50,[1],336 nM
same,% Inhibitory rate on Day 29,[3],81%
same,Mean tumor volume Day 29,[3],424.78 mm^3
Cc1nn(C2CCOCC2)c(Oc2ccnc(Nc3cccc(C(N)=O)c3)c2)c1C [Compound 15],IC50,[1],416 nM
NC(=O)c1cccc(Nc2cc(Oc3c4c(nn3C3CCOCC3)CCC4)ccn2)c1 [Compound 16],IC50,[1],166 nM
NC(=O)c1cccc(Nc2cc(Oc3c4c(nn3C3CCOCC3)CCCC4)ccn2)c1 [Compound 17],IC50,[1],621 nM
CC(C)c1cc(Oc2ccnc(Nc3cccc(C(N)=O)c3)c2)n(C2CCOCC2)n1 [Compound 19],IC50,[1],587 nM
"Cc1cccc(-c2nn3c(c2-c2ccnc4ccc(C(N)=O)cc24)CCC3)n1 [Compound A, Galunisertib, reference compound]",Drug concentration in tumor tissue 1 hour after administration,[4],988 nmol/kg
same,Drug concentration in tumor tissue 12 hours after administration,[4],180 nmol/kg
same,AUC,[4],6.17 µM·h
same,AUC(0-t),"[5]; iv, injection, 1 mg/kg",0.814 µM·h
same,clearance,"[5]; iv, injection, 1 mg/kg",56 mL/min/kg
same,half-life,"[5]; iv, injection, 1 mg/kg",0.45 h
same,Vd,"[5]; iv, injection, 1 mg/kg",1.31 L/kg
same,AUC(0-t),"[5]; oral, 5 mg/kg",1.37 µM·h
same,Cmax,"[5]; oral, 5 mg/kg",1840 nM
same,Tmax,"[5]; oral, 5 mg/kg",0.25 h
same,half-life,"[5]; oral, 5 mg/kg",1.1 h
same,F,[5]; oral 5 mg/kg vs injection 1 mg/kg,33.5%
same,AUC(0-t),"[2]; iv, injection (1 mg/kg)",1.15 µM·h
same,clearance,"[2]; iv, injection (1 mg/kg)",37.3 mL/min/kg
same,half-life,"[2]; iv, injection (1 mg/kg)",0.477 h
same,Vd,"[2]; iv, injection (1 mg/kg)",0.679 L/kg
same,bioavailability,[2],34.9%
same,AUC(0-t),[2]; oral (1.5 mg/kg),0.586 µM·h
same,Cmax,[2]; oral (1.5 mg/kg),712 nM
same,Tmax,[2]; oral (1.5 mg/kg),0.25 h
same,half-life,[2]; oral (1.5 mg/kg),1.45 h
same,% Inhibitory rate on Day 29,[3],66%
same,Mean tumor volume Day 29,[3],758.19 mm^3
NC(=O)c1cccc(Nc2cc(Oc3cc(C4CC4)nn3C3CCOCC3)ccn2)c1 [Trifluoroacetate of compound 18],IC50,[1],283 nM
